Test results reported in patent publication US20220389003A1, “4-SUBSTITUTED INDOLE AND INDAZOLE SULFONAMIDO DERIVATIVES AS PARG INHIBITORS” (IDEAYA BIOSCIENCES, INC., priority 2019, published 2022).

How the values were obtained:
[1] = system: HCC1806-XRCC1 KD (knock down) cells; assay: Cellular viability assay (Cell Titer-Glo); type: cell-based; conditions: 96 h, HCC1806-shXRCC1 cells, 4 days of incubation, read-out: PARGi cell viability
Outline: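 XRCC1-knockdown HCC1806 cells seeded 24 h before dosing; 9-point 1:3 dilution from 30 μM top concentration, duplicates, 4-day incubation. Viability by CellTiter-Glo luminescence, normalized to DMSO wells as % of control; curves fit with 4-parameter inhibition model.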

PARG [2] = biological target: T1, PARG (Homo sapiens, UniProt Q86W56); assay: Inhibition of PARG enzymatic assay (TR-FRET enzymatic IC50 assay); type: biochemical; set-up: purchased Peak Proteins; conditions: hPARG 250 pM, biotinylated-PARylated PARP substrate 30 nM
T1 sequence (Q86W56 whole entry): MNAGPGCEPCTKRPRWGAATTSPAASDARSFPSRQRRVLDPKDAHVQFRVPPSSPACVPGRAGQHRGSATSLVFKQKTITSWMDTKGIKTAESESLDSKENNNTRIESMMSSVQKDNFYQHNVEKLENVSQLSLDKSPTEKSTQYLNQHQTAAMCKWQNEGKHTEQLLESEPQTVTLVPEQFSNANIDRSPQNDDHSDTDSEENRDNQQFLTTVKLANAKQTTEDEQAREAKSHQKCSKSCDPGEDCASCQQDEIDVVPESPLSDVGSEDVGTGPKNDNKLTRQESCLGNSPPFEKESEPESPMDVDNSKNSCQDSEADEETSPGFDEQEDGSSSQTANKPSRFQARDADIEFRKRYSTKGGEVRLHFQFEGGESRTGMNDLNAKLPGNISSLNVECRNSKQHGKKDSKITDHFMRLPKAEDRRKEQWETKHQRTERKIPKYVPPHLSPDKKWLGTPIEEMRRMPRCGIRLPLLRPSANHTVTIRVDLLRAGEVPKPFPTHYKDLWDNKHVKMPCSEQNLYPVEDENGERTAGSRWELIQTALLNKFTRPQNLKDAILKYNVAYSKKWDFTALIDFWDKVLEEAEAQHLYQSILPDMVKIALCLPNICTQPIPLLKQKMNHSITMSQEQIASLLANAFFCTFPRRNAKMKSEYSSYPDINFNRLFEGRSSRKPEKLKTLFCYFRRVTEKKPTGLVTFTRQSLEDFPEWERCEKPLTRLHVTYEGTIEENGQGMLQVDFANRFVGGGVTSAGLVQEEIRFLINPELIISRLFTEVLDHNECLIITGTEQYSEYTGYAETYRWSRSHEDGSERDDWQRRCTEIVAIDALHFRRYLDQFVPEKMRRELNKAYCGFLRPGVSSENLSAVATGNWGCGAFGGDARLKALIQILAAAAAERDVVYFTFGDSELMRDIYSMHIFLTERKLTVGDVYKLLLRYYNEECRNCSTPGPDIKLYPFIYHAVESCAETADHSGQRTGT
Outline: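 Compound preincubated 1 h with 250 pM His-tagged hPARG, then 30 nM biotinylated PARylated hPARP1 substrate added for 10 min; buffer 50 mM Tris-HCl pH 7.4, EDTA/EGTA, 1 mM DTT, 23° C. TR-FRET read after 1 h with anti-His ULight antibody and streptavidin-europium; inhibition scaled between DMSO and no-enzyme controls.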

PARG [3] = biological target: T1, PARG; assay: Inhibition of PARG cellular assay (PAR foci in HeLa cells after MMS); type: cell-based; set-up: endogenous in cells; host or cells: HeLa; conditions: compound 1 h then MMS 1 h
Outline: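 HeLa cells pretreated with compound for 1 h, then given MMS for a further 1 h, fixed and immunostained for PAR polymer. High-content imaging quantified nuclear PAR foci intensity (PAR Foci IC50) and percent cells with foci signal >1.3 (PAR % positive IC50).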

Compound: N#CC1(NS(=O)(=O)c2cc(N3CCN(C(=O)C4CCCC4)CC3)c3cnn(-c4nnc(C(F)F)s4)c3c2)CC1 [Example 66, 1-[({1-[5-(difluoromethyl)(1,3,4-thiadiazol-2-yl)]-4-[4-(cyclopentylcarbonyl)piperazinyl]-1H-indazol-6-yl}sulfonyl)amino]cyclopropanecarbonitrile]
- IC50 [1]: 1000 to 10000 nM
- IC50 (PARG [2]): ≤ 100 nM
- IC50 (PARG [3]): ≤ 100 nM

Compound: CN(CC(F)F)C(=O)N1CCN(c2cc(S(=O)(=O)NC3(C#N)CC3)cc3c2cnn3-c2nnc(C(F)F)s2)CC1 [Example 67, N-(2,2-difluoroethyl)[4-(1-[5-(difluoromethyl)(1,3,4-thiadiazol-2-yl)]-6-{[(cyanocyclopropyl)amino]sulfonyl}(1H-indazol-4-yl))piperazinyl]-N-methylcarboxamide]
- IC50 [1]: < 1000 nM
- IC50 (PARG [2]): ≤ 100 nM
- IC50 (PARG [3]): ≤ 100 nM

Compound: CN1CC[C@H](C(=O)N2CCN(c3cc(S(=O)(=O)NC4(C#N)CC4)cc4c3cnn4-c3nnc(C(F)F)s3)CC2)C1 [Example 68, 1-{[(4-{4-[((3S)-1-methylpyrrolidin-3-yl)carbonyl]piperazinyl}-1-[5-(difluoromethyl)(1,3,4-thiadiazol-2-yl)]-1H-indazol-6-yl)sulfonyl]amino}cyclopropanecarbonitrile]
- IC50 [1]: 1000 to 10000 nM
- IC50 (PARG [2]): ≤ 100 nM
- IC50 (PARG [3]): 1000 to 10000 nM

Compound: Cn1ccnc1N1CCN(c2cc(S(=O)(=O)NC3(C#N)CC3)cc3c2cnn3-c2nnc(C(F)F)s2)CC1 [Example 69, 1-[({1-[5-(difluoromethyl)(1,3,4-thiadiazol-2-yl)]-4-[4-(1-methylimidazol-2-yl)piperazinyl]-1H-indazol-6-yl}sulfonyl)amino]cyclopropanecarbonitrile]
- IC50 [1]: < 1000 nM
- IC50 (PARG [2]): ≤ 100 nM
- IC50 (PARG [3]): ≤ 100 nM

Compound: CCCN(C)C(=O)N1CCN(c2cc(S(=O)(=O)NC3(C#N)CC3)cc3c2cnn3-c2nnc(C(F)F)s2)CC1 [Example 77, [4-(1-[5-(difluoromethyl)(1,3,4-thiadiazol-2-yl)]-6-{[(cyanocyclopropyl)amino]sulfonyl}(1H-indazol-4-yl))piperazinyl]-N-methyl-N-propylcarboxamide]
- IC50 [1]: < 1000 nM
- IC50 (PARG [2]): ≤ 100 nM
- IC50 (PARG [3]): ≤ 100 nM

Compound: Cc1cccnc1N1CCN(c2cc(S(=O)(=O)NC3(C#N)CC3)cc3c2cnn3-c2nnc(C(F)F)s2)CC1 [Example 79, 1-[({1-[5-(difluoromethyl)(1,3,4-thiadiazol-2-yl)]-4-[4-(3-methyl(2-pyridyl))-piperazinyl]-1H-indazol-6-yl}sulfonyl)amino]cyclopropanecarbonitrile]
- IC50 [1]: 1000 to 10000 nM
- IC50 (PARG [2]): 300 to 1000 nM
- IC50 (PARG [3]): 100 to 300 nM

Compound: N#CC1(NS(=O)(=O)c2cc(N3CCN(C(=O)C4CC4)CC3)c3cnn(-c4nnc(C(F)F)s4)c3c2)CC1 [Example 80, 1-[({1-[5-(difluoromethyl)(1,3,4-thiadiazol-2-yl)]-4-[4-(cyclopropylcarbonyl)piperazinyl]-1H-indazol-6-yl}sulfonyl)amino]cyclopropanecarbonitrile]
- IC50 [1]: 1000 to 10000 nM
- IC50 (PARG [2]): ≤ 100 nM
- IC50 (PARG [3]): ≤ 100 nM

Compound: CC(C)C(=O)N1CCN(c2cc(S(=O)(=O)NC3(C#N)CC3)cc3c2cnn3-c2nnc(C(F)F)s2)C[C@H]1C [Example 82, 1-[({4-[(3R)-3-methyl-4-(2-methylpropanoyl)piperazinyl]-1-[5-(difluoromethyl) (1,3,4-thiadiazol-2-yl)]-1H-indazol-6-yl}sulfonyl)amino]cyclopropanecarbonitrile]
- IC50 [1]: < 1000 nM
- IC50 (PARG [2]): ≤ 100 nM
- IC50 (PARG [3]): ≤ 100 nM

Compound: C[C@H]1CN(c2cc(S(=O)(=O)NC3(C#N)CC3)cc3c2cnn3-c2nnc(C(F)F)s2)CCN1C(=O)N(C)C [Example 83, [(2S)-4-(1-[5-(difluoromethyl)(1,3,4-thiadiazol-2-yl)]-6-{[(cyanocyclopropyl)amino]sulfonyl}(1H-indazol-4-yl))-2-methylpiperazinyl]-N,N-dimethylcarboxamide]
- IC50 [1]: < 1000 nM
- IC50 (PARG [2]): ≤ 100 nM
- IC50 (PARG [3]): ≤ 100 nM

Compound: Cc1ccncc1N1CCN(c2cc(S(=O)(=O)NC3(C#N)CC3)cc3c2cnn3-c2nnc(C(F)F)s2)CC1 [Example 84, 1-[({1-[5-(difluoromethyl)(1,3,4-thiadiazol-2-yl)]-4-[4-(4-methyl(3-pyridyl))piperazinyl]-1H-indazol-6-yl}sulfonyl)amino]cyclopropanecarbonitrile]
- IC50 [1]: 1000 to 10000 nM
- IC50 (PARG [2]): 300 to 1000 nM
- IC50 (PARG [3]): 100 to 300 nM

Compound: CN1CCC(C(=O)N2CCN(c3cc(S(=O)(=O)NC4(C#N)CC4)cc4c3cnn4-c3nnc(C(F)F)s3)CC2)CC1 [Example 85, 1-{[(1-[5-(difluoromethyl)(1,3,4-thiadiazol-2-yl)]-4-{4-[(1-methyl(4-piperidyl))-carbonyl]piperazinyl}-1H-indazol-6-yl)sulfonyl]amino}cyclopropanecarbonitrile]
- IC50 [1]: 1000 to 10000 nM
- IC50 (PARG [2]): ≤ 100 nM
- IC50 (PARG [3]): 1000 to 10000 nM

Compound: CN(CC(F)(F)F)C(=O)N1CCN(c2cc(S(=O)(=O)NC3(C#N)CC3)cc3c2cnn3-c2nnc(C(F)F)s2)CC1 [Example 86, [4-(1-[5-(difluoromethyl)(1,3,4-thiadiazol-2-yl)]-6-{[(cyanocyclopropyl)amino]sulfonyl}(1H-indazol-4-yl))piperazinyl]-N-methyl-N-(2,2,2-trifluoroethyl)carboxamide]
- IC50 [1]: < 1000 nM
- IC50 (PARG [2]): ≤ 100 nM
- IC50 (PARG [3]): ≤ 100 nM

Compound: N#CC1(NS(=O)(=O)c2cc(N3CCN(C(=O)c4ccccn4)CC3)c3cnn(-c4nnc(C(F)F)s4)c3c2)CC1 [Example 87, 1-[({1-[5-(difluoromethyl)(1,3,4-thiadiazol-2-yl)]-4-[4-(2-pyridylcarbonyl)piperazinyl]-1H-indazol-6-yl}sulfonyl)amino]cyclopropanecarbonitrile]
- IC50 [1]: 1000 to 10000 nM
- IC50 (PARG [2]): ≤ 100 nM
- IC50 (PARG [3]): ≤ 100 nM

Compound: CC(C)C(=O)N1CCN(c2cc(S(=O)(=O)NC3(C#N)CC3)cc3c2cnn3-c2nnc(C(F)F)s2)C[C@@H]1C [Example 88, 1-[({4-[(3S)-3-methyl-4-(2-methylpropanoyl)piperazinyl]-1-[5-(difluoromethyl) (1,3,4-thiadiazol-2-yl)]-1H-indazol-6-yl}sulfonyl)amino]cyclopropanecarbonitrile]
- IC50 [1]: 1000 to 10000 nM
- IC50 (PARG [2]): ≤ 100 nM
- IC50 (PARG [3]): ≤ 100 nM

Compound: CC(C)C(=O)N1[C@H](C)CN(c2cc(S(=O)(=O)NC3(C#N)CC3)cc3c2cnn3-c2nnc(C(F)F)s2)C[C@@H]1C [Example 89, 1-[({4-[cis-3,5-dimethyl-4-(2-methylpropanoyl)piperazinyl]-1-[5-(difluoromethyl)-(1,3,4-thiadiazol-2-yl)]-1H-indazol-6-yl}sulfonyl)amino]cyclopropanecarbonitrile]
- IC50 [1]: 1000 to 10000 nM
- IC50 (PARG [2]): ≤ 100 nM
- IC50 (PARG [3]): ≤ 100 nM

Compound: CN1CCC[C@@H]1C(=O)N1CCN(c2cc(S(=O)(=O)NC3(C#N)CC3)cc3c2cnn3-c2nnc(C(F)F)s2)CC1 [Example 90, 1-{[(4-{4-[((2R)-1-methylpyrrolidin-2-yl)carbonyl]piperazinyl}-1-[5-(difluoromethyl)(1,3,4-thiadiazol-2-yl)]-1H-indazol-6-yl)sulfonyl]amino}cyclopropanecarbonitrile]
- IC50 [1]: 1000 to 10000 nM
- IC50 (PARG [2]): ≤ 100 nM
- IC50 (PARG [3]): 1000 to 10000 nM
